Test results reported in publication PMC3365589 (Journal of the American Chemical Society, 2011).

Experiments:
α1_2βγδ (Torpedo) nAChR [1] = details: read-out: Kd of radioligand on muscle-type receptor; cited from earlier work
human α7 nAChR = human α7 nAChR (Homo sapiens, UniProt P36544); assay type: cell-based
α1_2βγδ (Torpedo) nAChR [2] = assay: Equilibrium competition binding with [125I]α-BTX on Torpedo membranes; details: read-out: Ki ± SEM
chimeric α7-5HT3 nAChR = chimeric α7-5HT3 nAChR (UniProt P22770+P23979, M226I/T225I); assay type: binding; details: read-out: Ki ± SEM; α7–5HT3 (chick), [125I]α-BTX
human α4β2 nAChR = human α4β2 nAChR (Homo sapiens, UniProt P17787+P43681); assay type: binding
human α3β2 nAChR = human α3β2 nAChR (Homo sapiens, UniProt P17787+P32297); assay type: binding; details: read-out: Ki ± SEM, [3H]epibatidine
human M1 mAChR = assay: [3H]NMS binding inhibition, CHO cell membranes, M1; details: 1 μM
human M2 mAChR = assay: [3H]NMS binding inhibition, CHO cell membranes, M2; details: 1 μM
human M3 mAChR = assay: [3H]NMS binding inhibition, CHO cell membranes, M3; details: 1 μM
human M4 mAChR = assay: [3H]NMS binding inhibition, CHO cell membranes, M4; details: 1 μM
human M5 mAChR = assay: [3H]NMS binding inhibition, CHO cell membranes, M5; details: 1 μM, M5, [3H]NMS
calcium channels = assay: Broad receptor binding screening; details: 10 μM
mice = details: intraperitoneal injection of a lethal dose

| Compound | Kd (α1_2βγδ (Torpedo) nAChR [1]) [nM] | Effect on rate of desensitization of ACh-evoked currents (human α7 nAChR; 350 μM ACh, −60 mV) | Direct agonist effect (current evoked when applied on its own) (human α7 nAChR; 0.1–50 nM, n = 6) | Reversibility of blocking action on α7 nAChR (human α7 nAChR; after a 10–15 min washout) | Ki (α1_2βγδ (Torpedo) nAChR [2]) [nM] | Ki (chimeric α7-5HT3 nAChR) [nM] | Fraction of [3H]epibatidine displaced (partial antagonist property) (human α4β2 nAChR) | Ki (human α4β2 nAChR; read-out: Ki ± SEM, α4β2 (human), [3H]epibatidine) [nM] | Ki (human α3β2 nAChR) [nM] | Effect on 3H-NMS binding (human M1 mAChR) | Effect on 3H-NMS binding (human M2 mAChR) | Effect on 3H-NMS binding (human M3 mAChR) | Effect on 3H-NMS binding (human M4 mAChR) | Radiotracer displacement (human M5 mAChR) [%] | Binding activity for calcium channels (calcium channels) | Toxicological profile (symptoms) (mice) |
| --- | --- | --- | --- | --- | --- | --- | --- | --- | --- | --- | --- | --- | --- | --- | --- | --- |
| α-bungarotoxin [α-BTX] | 0.05 | – | – | – | – | – | – | – | – | – | – | – | – | – | – | – |
| C=C1CCCC2=NC[C@H](C)[C@@H](C)C[C@@]23CCC(C(=O)O)=C[C@@H]3[C@@H]2O[C@]3(C[C@H]4CCC[C@@]5(CC[C@@]6(O[C@@H](CC[C@@]6(C)O)C1)O5)O4)C[C@@H](C)[C@@H](O)[C@H]2O3 [PnTX A, pinnatoxin A] | – | did not appear to affect the rate of desensitization | did not evoke any current | not reversible | 2.8 ± 0.03 | 0.35 ± 0.04 | approximately half | 15.6 ± 5.2 | 9.4 ± 1.9 | no significant effect | no significant effect | no significant effect | no significant effect | 35 | no significant binding activity | transient mouse hyperactivity, followed by a decrease in respiratory rate with prominent abdominal breathing leading to death due to respiratory paralysis |
